# Measured values reported in PubChem BioAssay (NCI).
#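 Five concentrations, 48 hours, 96-well plates. Here, GI50 denotes the concentration required for 50% inhibition of growth. Definition used: TGI = concentration required for complete inhibition of growth.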
# Tests used:
# Experiment in all cases: inhibition of tumour cell growth, NCI panel, 48 h
# 786-0 renal = system: 786-0 renal
# A498 renal = system: A498 renal
# A549 NSCLC = system: A549 NSCLC
# ACHN renal = system: ACHN renal
# BT-549 breast = system: BT-549 breast
# CAKI-1 renal = system: CAKI-1 renal
# CCRF-CEM leukemia = system: CCRF-CEM leukemia
# COLO 205 colon = system: COLO 205 colon
# DU-145 prostate = system: DU-145 prostate
# EKVX NSCLC = system: EKVX NSCLC
# HCC-2998 colon = system: HCC-2998 colon
# HCT-116 colon = system: HCT-116 colon
# HCT-15 colon = system: HCT-15 colon
# HL-60(TB) leukemia = system: HL-60(TB) leukemia
# HOP-62 NSCLC = system: HOP-62 NSCLC
# HOP-92 NSCLC = system: HOP-92 NSCLC
# HS 578T breast = system: HS 578T breast
# HT29 colon = system: HT29 colon
# IGROV1 ovarian = system: IGROV1 ovarian
# K-562 leukemia = system: K-562 leukemia
# KM12 colon = system: KM12 colon
# LOX IMVI melanoma = system: LOX IMVI melanoma
# M14 melanoma = system: M14 melanoma
# MALME-3M melanoma = system: MALME-3M melanoma
# MDA-MB-231 breast = system: MDA-MB-231 breast
# MDA-MB-435 = system: MDA-MB-435
# NCI-H226 lung = system: NCI-H226 lung
# NCI-H23 lung = system: NCI-H23 lung
# NCI-H522 lung = system: NCI-H522 lung
# NCI/ADR-RES ovarian = system: NCI/ADR-RES ovarian
# OVCAR-3 ovarian = system: OVCAR-3 ovarian
# OVCAR-4 ovarian = system: OVCAR-4 ovarian
# OVCAR-5 ovarian = system: OVCAR-5 ovarian
# OVCAR-8 ovarian = system: OVCAR-8 ovarian
# PC-3 prostate = system: PC-3 prostate
# RPMI-8226 leukemia = system: RPMI-8226 leukemia
# RXF 393 renal = system: RXF 393 renal
# SF-295 CNS = system: SF-295 CNS
# SF-539 CNS = system: SF-539 CNS
# SK-MEL-2 melanoma = system: SK-MEL-2 melanoma
# SK-MEL-28 melanoma = system: SK-MEL-28 melanoma
# SK-OV-3 ovarian = system: SK-OV-3 ovarian
# SN12C renal = system: SN12C renal
# SNB-75 CNS = system: SNB-75 CNS
# SR leukemia = system: SR leukemia
# SW-620 colon = system: SW-620 colon
# T-47D breast = system: T-47D breast
# TK-10 renal = system: TK-10 renal
# U251 CNS = system: U251 CNS
# UACC-257 melanoma = system: UACC-257 melanoma
# UACC-62 melanoma = system: UACC-62 melanoma
# UO-31 renal = system: UO-31 renal
# MCF7 breast = system: MCF7 breast
# MOLT-4 leukemia = system: MOLT-4 leukemia
# NCI-H460 lung = system: NCI-H460 lung
# SF-268 CNS = system: SF-268 CNS
# SK-MEL-5 melanoma = system: SK-MEL-5 melanoma
# SNB-19 CNS = system: SNB-19 CNS
smiles,measurement,setting,value
COc1cccc2c(Nc3ccc(C(=O)O)cc3)cc(-c3ccccc3)nc12,GI50,786-0 renal,> 100 µM
same,TGI,786-0 renal,> 100 µM
same,GI50,A498 renal,> 100 µM
same,TGI,A498 renal,> 100 µM
same,GI50,A549 NSCLC,> 100 µM
same,TGI,A549 NSCLC,> 100 µM
same,GI50,ACHN renal,> 100 µM
same,TGI,ACHN renal,> 100 µM
same,GI50,BT-549 breast,> 100 µM
same,TGI,BT-549 breast,> 100 µM
same,GI50,CAKI-1 renal,> 100 µM
same,TGI,CAKI-1 renal,> 100 µM
same,GI50,CCRF-CEM leukemia,> 100 µM
same,TGI,CCRF-CEM leukemia,> 100 µM
same,GI50,COLO 205 colon,> 100 µM
same,TGI,COLO 205 colon,> 100 µM
same,GI50,DU-145 prostate,> 100 µM
same,TGI,DU-145 prostate,> 100 µM
same,GI50,EKVX NSCLC,> 100 µM
same,TGI,EKVX NSCLC,> 100 µM
same,GI50,HCC-2998 colon,> 100 µM
same,TGI,HCC-2998 colon,> 100 µM
same,GI50,HCT-116 colon,> 100 µM
same,TGI,HCT-116 colon,> 100 µM
same,GI50,HCT-15 colon,> 100 µM
same,TGI,HCT-15 colon,> 100 µM
same,GI50,HL-60(TB) leukemia,> 100 µM
same,TGI,HL-60(TB) leukemia,> 100 µM
same,GI50,HOP-62 NSCLC,> 100 µM
same,TGI,HOP-62 NSCLC,> 100 µM
same,GI50,HOP-92 NSCLC,39.4 µM
same,TGI,HOP-92 NSCLC,> 100 µM
same,GI50,HS 578T breast,> 100 µM
same,TGI,HS 578T breast,> 100 µM
same,GI50,HT29 colon,> 100 µM
same,TGI,HT29 colon,> 100 µM
same,GI50,IGROV1 ovarian,> 100 µM
same,TGI,IGROV1 ovarian,> 100 µM
same,GI50,K-562 leukemia,> 100 µM
same,TGI,K-562 leukemia,> 100 µM
same,GI50,KM12 colon,> 100 µM
same,TGI,KM12 colon,> 100 µM
same,GI50,LOX IMVI melanoma,> 100 µM
same,TGI,LOX IMVI melanoma,> 100 µM
same,GI50,M14 melanoma,> 100 µM
same,TGI,M14 melanoma,> 100 µM
same,GI50,MALME-3M melanoma,> 100 µM
same,TGI,MALME-3M melanoma,> 100 µM
same,GI50,MDA-MB-231 breast,> 100 µM
same,TGI,MDA-MB-231 breast,> 100 µM
same,GI50,MDA-MB-435,> 100 µM
same,TGI,MDA-MB-435,> 100 µM
same,GI50,NCI-H226 lung,> 100 µM
same,TGI,NCI-H226 lung,> 100 µM
same,GI50,NCI-H23 lung,> 100 µM
same,TGI,NCI-H23 lung,> 100 µM
same,GI50,NCI-H522 lung,> 100 µM
same,TGI,NCI-H522 lung,> 100 µM
same,GI50,NCI/ADR-RES ovarian,> 100 µM
same,TGI,NCI/ADR-RES ovarian,> 100 µM
same,GI50,OVCAR-3 ovarian,> 100 µM
same,TGI,OVCAR-3 ovarian,> 100 µM
same,GI50,OVCAR-4 ovarian,> 100 µM
same,TGI,OVCAR-4 ovarian,> 100 µM
same,GI50,OVCAR-5 ovarian,> 100 µM
same,TGI,OVCAR-5 ovarian,> 100 µM
same,GI50,OVCAR-8 ovarian,> 100 µM
same,TGI,OVCAR-8 ovarian,> 100 µM
same,GI50,PC-3 prostate,> 100 µM
same,TGI,PC-3 prostate,> 100 µM
same,GI50,RPMI-8226 leukemia,> 100 µM
same,TGI,RPMI-8226 leukemia,> 100 µM
same,GI50,RXF 393 renal,> 100 µM
same,TGI,RXF 393 renal,> 100 µM
same,GI50,SF-295 CNS,> 100 µM
same,TGI,SF-295 CNS,> 100 µM
same,GI50,SF-539 CNS,> 100 µM
same,TGI,SF-539 CNS,> 100 µM
same,GI50,SK-MEL-2 melanoma,> 100 µM
same,TGI,SK-MEL-2 melanoma,> 100 µM
same,GI50,SK-MEL-28 melanoma,> 100 µM
same,TGI,SK-MEL-28 melanoma,> 100 µM
same,GI50,SK-OV-3 ovarian,> 100 µM
same,TGI,SK-OV-3 ovarian,> 100 µM
same,GI50,SN12C renal,> 100 µM
same,TGI,SN12C renal,> 100 µM
same,GI50,SNB-75 CNS,72.3 µM
same,TGI,SNB-75 CNS,> 100 µM
same,GI50,SR leukemia,> 100 µM
same,TGI,SR leukemia,> 100 µM
same,GI50,SW-620 colon,> 100 µM
same,TGI,SW-620 colon,> 100 µM
same,GI50,T-47D breast,84.5 µM
same,TGI,T-47D breast,> 100 µM
same,GI50,TK-10 renal,> 100 µM
same,TGI,TK-10 renal,> 100 µM
same,GI50,U251 CNS,> 100 µM
same,TGI,U251 CNS,> 100 µM
same,GI50,UACC-257 melanoma,> 100 µM
same,TGI,UACC-257 melanoma,> 100 µM
same,GI50,UACC-62 melanoma,> 100 µM
same,TGI,UACC-62 melanoma,> 100 µM
same,GI50,UO-31 renal,> 100 µM
same,TGI,UO-31 renal,> 100 µM
COc1ccc(/C(COc2ccc3c(c2)oc(=O)c2cc(OC)ccc23)=N/O)cc1,GI50,786-0 renal,14.8 µM
same,TGI,786-0 renal,> 100 µM
same,GI50,A498 renal,3.22 µM
same,TGI,A498 renal,52.2 µM
same,GI50,A549 NSCLC,7.41 µM
same,TGI,A549 NSCLC,> 100 µM
same,GI50,BT-549 breast,15 µM
same,TGI,BT-549 breast,> 100 µM
same,GI50,CAKI-1 renal,6.4 µM
same,TGI,CAKI-1 renal,> 100 µM
same,GI50,CCRF-CEM leukemia,8.05 µM
same,TGI,CCRF-CEM leukemia,> 100 µM
same,GI50,COLO 205 colon,3.75 µM
same,TGI,COLO 205 colon,> 100 µM
same,GI50,DU-145 prostate,29.2 µM
same,TGI,DU-145 prostate,> 100 µM
same,GI50,EKVX NSCLC,23.7 µM
same,TGI,EKVX NSCLC,> 100 µM
same,GI50,HCC-2998 colon,7.64 µM
same,TGI,HCC-2998 colon,> 100 µM
same,GI50,HCT-116 colon,4.18 µM
same,TGI,HCT-116 colon,> 100 µM
same,GI50,HCT-15 colon,5.16 µM
same,TGI,HCT-15 colon,> 100 µM
same,GI50,HOP-62 NSCLC,8.86 µM
same,TGI,HOP-62 NSCLC,> 100 µM
same,GI50,HOP-92 NSCLC,80.9 µM
same,TGI,HOP-92 NSCLC,> 100 µM
same,GI50,HS 578T breast,10.6 µM
same,TGI,HS 578T breast,> 100 µM
same,GI50,HT29 colon,3.72 µM
same,TGI,HT29 colon,74.8 µM
same,GI50,IGROV1 ovarian,4.87 µM
same,TGI,IGROV1 ovarian,> 100 µM
same,GI50,K-562 leukemia,5.36 µM
same,TGI,K-562 leukemia,> 100 µM
same,GI50,KM12 colon,4.67 µM
same,TGI,KM12 colon,> 100 µM
same,GI50,LOX IMVI melanoma,8.12 µM
same,TGI,LOX IMVI melanoma,67.2 µM
same,GI50,M14 melanoma,4.29 µM
same,TGI,M14 melanoma,> 100 µM
same,GI50,MALME-3M melanoma,65.7 µM
same,TGI,MALME-3M melanoma,> 100 µM
same,GI50,MCF7 breast,4.16 µM
same,TGI,MCF7 breast,> 100 µM
same,GI50,MDA-MB-231 breast,10.8 µM
same,TGI,MDA-MB-231 breast,> 100 µM
same,GI50,MOLT-4 leukemia,5.86 µM
same,TGI,MOLT-4 leukemia,> 100 µM
same,GI50,NCI-H226 lung,41.7 µM
same,TGI,NCI-H226 lung,> 100 µM
same,GI50,NCI-H23 lung,20.5 µM
same,TGI,NCI-H23 lung,> 100 µM
same,GI50,NCI-H460 lung,3.97 µM
same,TGI,NCI-H460 lung,> 100 µM
same,GI50,NCI-H522 lung,3.55 µM
same,TGI,NCI-H522 lung,19.1 µM
same,GI50,NCI/ADR-RES ovarian,2.96 µM
same,TGI,NCI/ADR-RES ovarian,9.76 µM
same,GI50,OVCAR-3 ovarian,3.68 µM
same,TGI,OVCAR-3 ovarian,> 100 µM
same,GI50,OVCAR-4 ovarian,24.7 µM
same,TGI,OVCAR-4 ovarian,> 100 µM
same,GI50,OVCAR-5 ovarian,> 100 µM
same,TGI,OVCAR-5 ovarian,> 100 µM
same,GI50,OVCAR-8 ovarian,11.4 µM
same,TGI,OVCAR-8 ovarian,> 100 µM
same,GI50,PC-3 prostate,7.28 µM
same,TGI,PC-3 prostate,> 100 µM
same,GI50,RPMI-8226 leukemia,5.44 µM
same,TGI,RPMI-8226 leukemia,> 100 µM
same,GI50,RXF 393 renal,26.8 µM
same,TGI,RXF 393 renal,> 100 µM
same,GI50,SF-268 CNS,8.33 µM
same,TGI,SF-268 CNS,> 100 µM
same,GI50,SF-295 CNS,6.2 µM
same,TGI,SF-295 CNS,> 100 µM
same,GI50,SF-539 CNS,8.33 µM
same,TGI,SF-539 CNS,51.3 µM
same,GI50,SK-MEL-2 melanoma,15.2 µM
same,TGI,SK-MEL-2 melanoma,> 100 µM
same,GI50,SK-MEL-28 melanoma,4.86 µM
same,TGI,SK-MEL-28 melanoma,> 100 µM
same,GI50,SK-MEL-5 melanoma,4.27 µM
same,TGI,SK-MEL-5 melanoma,69.4 µM
same,GI50,SK-OV-3 ovarian,37.4 µM
same,TGI,SK-OV-3 ovarian,> 100 µM
same,GI50,SN12C renal,13.6 µM
same,TGI,SN12C renal,> 100 µM
same,GI50,SNB-19 CNS,4.34 µM
same,TGI,SNB-19 CNS,> 100 µM
same,GI50,SNB-75 CNS,2.73 µM
same,TGI,SNB-75 CNS,9.98 µM
same,GI50,SW-620 colon,4.34 µM
same,TGI,SW-620 colon,> 100 µM
same,GI50,T-47D breast,6.9 µM
same,TGI,T-47D breast,> 100 µM
same,GI50,TK-10 renal,8.14 µM
same,TGI,TK-10 renal,> 100 µM
same,GI50,U251 CNS,5.08 µM
same,TGI,U251 CNS,> 100 µM
same,GI50,UACC-257 melanoma,24.8 µM
same,TGI,UACC-257 melanoma,> 100 µM
same,GI50,UACC-62 melanoma,3.94 µM
same,TGI,UACC-62 melanoma,> 100 µM
same,GI50,UO-31 renal,17.1 µM
same,TGI,UO-31 renal,> 100 µM
